Measured values: patent US20210386367A1, “DEVICES AND SYSTEMS FOR GASTROINTESTINAL MICROBIOME DETECTION AND MANIPULATION” (Progenity, Inc., priority 2018, published 2021)
In brackets after ≈: the same amount, converted by molar mass. Like-named read-outs stand apart in the source and are kept apart here.

Assays:
[1] = test system: Bacteroides spp. spontaneous mutants; conditions: B. fragilis ATCC 25285; CLSI QC range shown in parentheses; cited from earlier work
Enterobacteriaceae = conditions: cited from earlier work
[2] = in vivo, cited from earlier work
Bacteroides spp. = experiment: Spontaneous mutation frequency assay; type: cell-based
Method: (§1) Initial values of the MIC were determined by agar dilution in accordance with guidelines from the Clinical and Laboratory Standards Institute (CLSI; (1) “Methods for Dilution Antimicrobial Susceptibility Tests for Bacteria That Grow Aerobically; Approved Standard; 11th ed.,” CLSI standard M07, 2018; (2) “Methods for Antimicrobial Susceptibility Testing of Anaerobic Bacteria; Approved Standard—Eighth Edition,” CLSI document M11-A8, 2012.).
(§2) The agar plates were prepared by mixing a ratio of 1.0 mL of concentrated drug to 49.0 mL of the appropriate molten (47° C.) agar; the drug-supplemented agar was mixed, poured into 15-by-150 mm petri dishes and allowed to solidify and dry at room temperature prior to inoculation. […] Each plate was allowed to cool at room temperature for at least 1 hr.
(§3) The isolates were streaked onto the appropriate agar medium and incubated for 20 hr (aerobes) or 48 hr (Bacteroides under anaerobic conditions). Using a sterile swab, several well-isolated colonies were removed and resuspended in sterile saline at a heavy cell density. Each plate was inoculated with 0.5 mL of the cell suspension (each test concentration was inoculated in duplicate). The target inoculum for each spontaneous mutation plate was 10^9-10 CFU. In addition, a portion of the inoculum from each isolate was enumerated by making dilutions, spreading on agar and counting colonies.
(§4) Once the inoculum was absorbed into the agar, the plates were incubated at 35° C. Aerobes were examined at 24 and 48 hr, and resulting colonies were counted. Bacteroides were incubated anaerobically for 48-72 hr in the anaerobe chamber and colonies were counted.
(§5) Colony counts from plates used to enumerate the initial inoculum density and from the resulting spontaneous mutation frequency test plates were determined. The inoculum size was calculated as CFU inoculated per plate. The spontaneous mutation frequency was calculated using the counts from duplicate spontaneous mutation assay test plates as follows:
(§6) If there were no colonies on the antibiotic selection plates, the spontaneous mutation frequency was reported as less than the frequency observed with one colony to indicate that the spontaneous mutation frequency was less than the limit of detection (one CFU). […] The mutation prevention concentration (MPC) was reported as the lowest concentration for which no mutants were selected.

E. coli ATCC 25922 = conditions: cited from earlier work
[3] = test system: E. coli (ATCC 25922, ATCC 35218, MMX 1312); conditions: cited from earlier work
[4] = test system: Streptococcus spp. (S. pneumoniae ATCC 49619, S. pyogenes ATCC 49399, S. agalactiae ATCC 13813); conditions: cited from earlier work
[5] = test system: E. coli (ATCC 25922, ATCC 35218, MMX 1312); experiment: Spontaneous mutation frequency assay; type: cell-based, Escherichia coli; conditions: for mutation rate / colonies on selection plates: E. coli MMX 1312; for Spontaneous Mutation Frequency: selection at 4× and 8× MIC, meropenem/ceftriaxone: isolates other than MMX 1312
Method: as §1, §2, §3, §4, §5, §6

[6] = test system: Bacteroides spp. (B. fragilis ATCC 25285, B. vulgatus, B. ovatus MMX 3503); conditions: cited from earlier work
[7] = test system: E. coli spontaneous mutants; conditions: E. coli ATCC 25922; CLSI QC range shown in parentheses; cited from earlier work
B. ovatus = experiment: Spontaneous mutation frequency and mutation prevention concentration (MPC); type: cell-based; conditions: B. ovatus MMX 3503
Text: (§7) As used herein, “spontaneous mutation frequency” refers to the rate at which mutations arise in a bacterium that can lead to resistance to develop to an antimicrobial agent. “Mutation prevention concentration” or “MPC” refers to the lowest concentration of antimicrobial agent above which the selective proliferation of resistant mutants is expected to occur only rarely.

B. fragilis = experiment: as above; type: cell-based; conditions: B. fragilis ATCC 25285
Text: as §7

B. fragilis ATCC 25285 [8] = experiment: Time-kill assay; type: cell-based, Bacteroides fragilis; conditions: 2×, 4×, 8× MIC; 2, 6, 24, 48 hr
B. ovatus MMX 3503 = experiment: Time-kill assay; type: cell-based, Bacteroides ovatus; conditions: for time-kill kinetics outcome (bactericidal = ≥3 log reduction in CFU per mL): 2×, 4×, 8× MIC, 2, 6, 24, 48 hr
B. fragilis ATCC 25285 [9] = conditions: B. fragilis MMX 123 ATCC 25285; cited from earlier work
[10] = rifaximin selection 4X MIC, 2 μg/mL
[11] = rifaximin selection 8X MIC, 4 μg/mL
[12] = rifaximin selection 4X MIC, 1 μg/mL
[13] = rifaximin selection 8X MIC, 2 μg/mL

Cc1ncc([N+](=O)[O-])n1CCO [MTZ]
MIC, CLSI QC range [1]: (0.25-2) μg/mL

CO/N=C(\C(=O)N[C@@H]1C(=O)N2C(C(=O)O)=C(CSc3nc(=O)c(=O)[nH]n3C)CS[C@H]12)c1csc(N)n1 [ceftriaxone]
% S (Enterobacteriaceae): 87.5% | MIC50 (Enterobacteriaceae): ≤1 µg/mL | MIC90 (Enterobacteriaceae): 8 µg/mL (≈ 14.4 µM) | Rat oral exposure lower than iv ([2]; 50 mg/kg): mg/kg (200-fold | Rat oral exposure (Dose) ([2]; 50 mg/kg): 0.9 μg*hr/mL at 50 | MPC (mutation prevention concentration) (Bacteroides spp.; B. vulgatus ATCC 8482): 32 µg/mL | Spontaneous Mutation Frequency (Bacteroides spp.; B. vulgatus ATCC 8482, 4× the MIC): > 8.69×10^−8 | Spontaneous Mutation Frequency (Bacteroides spp.; B. vulgatus ATCC 8482, 8× the MIC): ≤ 1.74×10^−10 | CLSI QC range (MIC) (E. coli ATCC 25922): (0.03-0.12) μg/mL | CLSI QC range (agar MIC) [3]: 0.03 to 0.12 µg/mL | CLSI QC range (agar MIC) [4]: 0.03 to 0.12 µg/mL | mutation rate [5]: indeterminate | Spontaneous Mutation Frequency [5]: ≤ 7.41×10^−9 | CLSI QC range (agar MIC) [6]: 32 to 128 µg/mL | MIC, CLSI QC range [7]: (0.03-0.12)^1 μg/mL

C[C@@H](O)[C@H]1C(=O)N2C(C(=O)O)=C(S[C@@H]3CN[C@H](C(=O)N(C)C)C3)[C@H](C)[C@H]12 [meropenem]
% S (Enterobacteriaceae): 98.3% | MIC50 (Enterobacteriaceae): ≤0.12 µg/mL | Rat oral exposure (Dose) [2]: ~4% | colonies on selection plates (Bacteroides spp.): No Streptococcus spp. or Bacteroides spp. colonies were selected | MPC (B. ovatus): 0.5 µg/mL | Average Count (B. ovatus; selection 4X MIC, 0.5 μg/mL): 0 CFU | Count 1 (B. ovatus; selection 4X MIC, 0.5 μg/mL): 0 CFU | Count 2 (B. ovatus; selection 4X MIC, 0.5 μg/mL): 0 CFU | Spontaneous Mutation Frequency (B. ovatus; selection 4X MIC, 0.5 μg/mL): ≤1.05 × 10^−10 | Average Count (B. ovatus; selection 8X MIC, 1 μg/mL): 0 CFU | Count 1 (B. ovatus; selection 8X MIC, 1 μg/mL): 0 CFU | Count 2 (B. ovatus; selection 8X MIC, 1 μg/mL): 0 CFU | Spontaneous Mutation Frequency (B. ovatus; selection 8X MIC, 1 μg/mL): ≤1.05 × 10^−10 | MPC (B. fragilis): 0.5 µg/mL | Average Count (B. fragilis; selection 4X MIC, 0.5 μg/mL): 0 CFU | Count 1 (B. fragilis; selection 4X MIC, 0.5 μg/mL): 0 CFU | Count 2 (B. fragilis; selection 4X MIC, 0.5 μg/mL): 0 CFU | Spontaneous Mutation Frequency (B. fragilis; selection 4X MIC, 0.5 μg/mL): ≤1.48 × 10^−10 | Average Count (B. fragilis; selection 8X MIC, 1 μg/mL): 0 CFU | Count 1 (B. fragilis; selection 8X MIC, 1 μg/mL): 0 CFU | Count 2 (B. fragilis; selection 8X MIC, 1 μg/mL): 0 CFU | Spontaneous Mutation Frequency (B. fragilis; selection 8X MIC, 1 μg/mL): ≤1.48 × 10^−10 | time-kill kinetics outcome (bactericidal = ≥3 log reduction in CFU per mL) (B. fragilis ATCC 25285 [8]): rapid bactericidal activity against this organism at 6, 24 and 48 hr at 8×MIC, 24 and 48 hr at 4×MIC and at 24 hr at 2×MIC | time-kill kinetics outcome (bactericidal = ≥3 log reduction in CFU per mL) (B. ovatus MMX 3503): bactericidal at 8×MIC at 6, 24 and 48 hr; at 4×MIC at 24 and 48 hr; and at 2×MIC at 24 hr with rebound growth at 48 hr | CLSI QC range (MIC) (E. coli ATCC 25922): (0.008-0.06)^1 μg/mL | CLSI QC range (agar MIC) [3]: 0.008 to 0.06 µg/mL | CLSI QC range (MIC) (B. fragilis ATCC 25285 [9]): (0.03-0.25)^1 μg/mL | MIC, CLSI QC range [1]: (0.03-0.25)^1 μg/mL | CLSI QC range (agar MIC) [4]: 0.03 to 0.25 µg/mL | colonies on selection plates [5]: too numerous to count | mutation rate [5]: indeterminate | colonies on selection plates ([5]; listed as Meropenem): only E. coli MMX 1312 demonstrated growth | Spontaneous Mutation Frequency [5]: ≤ 7.41×10^−9 | CLSI QC range (agar MIC) [6]: 0.03 to 0.25 µg/mL | MIC, CLSI QC range [7]: (0.008-0.06) μg/mL

CO[C@H]1/C=C/O[C@@]2(C)Oc3c(C)c(O)c4c(O)c(c5c(nc6cc(C)ccn65)c4c3C2=O)NC(=O)/C(C)=C\C=C\[C@H](C)[C@H](O)[C@@H](C)[C@@H](O)[C@@H](C)[C@H](OC(C)=O)[C@@H]1C [rifaximin]
MFC (B. ovatus): >4 µg/mL | Average Count (B. ovatus; [10]): 34 CFU | Count 1 (B. ovatus; [10]): 31 CFU | Count 2 (B. ovatus; [10]): 37 CFU | Spontaneous Mutation Frequency (B. ovatus; [10]): 3.58 × 10^−9 | Average Count (B. ovatus; [11]): 27 CFU | Count 1 (B. ovatus; [11]): 28 CFU | Count 2 (B. ovatus; [11]): 25 CFU | Spontaneous Mutation Frequency (B. ovatus; [11]): 2.84 × 10^−9 | MFC (B. fragilis): >2 µg/mL | Average Count (B. fragilis; [12]): 11 CFU | Count 1 (B. fragilis; [12]): 12 CFU | Count 2 (B. fragilis; [12]): 10 CFU | Spontaneous Mutation Frequency (B. fragilis; [12]): 1.63 × 10^−9 | Average Count (B. fragilis; [13]): 8 CFU | Count 1 (B. fragilis; [13]): 6 CFU | Count 2 (B. fragilis; [13]): 9 CFU | Spontaneous Mutation Frequency (B. fragilis; [13]): 1.19 × 10^−9 | time-kill kinetics outcome (bactericidal = ≥3 log reduction in CFU per mL) (B. fragilis ATCC 25285 [8]): did not show evidence of killing | time-kill kinetics outcome (bactericidal = ≥3 log reduction in CFU per mL) (B. ovatus MMX 3503): rebounded to no-drug control levels at later time points | rapid killing (B. ovatus MMX 3503; 6 hr): ~2 log10 CFU | Spontaneous Mutation Frequency [5]: > 2.37×10^−8 | Spontaneous Mutation Frequency ([5]; listed as rifampin): ~10^−8

piperacillin/tazobactam [piperacillin-tazobactam]
CLSI QC range (MIC) (B. fragilis ATCC 25285 [9]): (4-16) μg/mL
